One data set is described as follows: Solubility. Particulars: aqueous solubility.
A short description of data set [1]: Stability in 1 M NaOH at room temperature, HPLC analysis. Particulars: for remained intact: after 48 hours.
The target of a further data set is Mcl-1/Bim (Homo sapiens, UniProt Q07820). The data set can be described thus: Mcl-1/Bim ELISA (GST-Mcl-1 binding to biotinylated Bim BH3 peptide). The note with it: for selectivity for Mcl-1 over Bcl-xL (Mcl-1/Bim over Bcl-xL/Bim): ratio of ELISA IC50 values. In a few lines:
(§1)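 Compounds premixed 15 min with 10 nM GST-Mcl-1 or GST-Bcl-xL in PBS, then 2 h on wells coated with 40 nM biotinylated Bim BH3 peptide (streptavidin capture). Bound protein detected with HRP anti-GST (1 h) and TMB; absorbance at 450 nm after HCl stop.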

The next data set has as its target Bcl-xL/Bim (Homo sapiens, UniProt Q07817). The data set can be described thus: Bcl-xL/Bim ELISA (GST-Bcl-xL binding to biotinylated Bim BH3 peptide). In a few lines:
as §1

The nature of data set [2]: pKa and log p calculated using ChemAxon Software Version 5.12.3. Particulars: difference to phenol pKa […].
Method: Both pKa and log p values were calculated using ChemAxon Software Version 5.12.3 (Dixon S L and Jurs P C. J. Comp. Chem. 1993, 14, 1460-1467; Csizmadia F et al. J. Pharm. Sci. 1997, 86, 865-871).
For data set [3], the system named is human breast cancer MDA-MB-468 cells. The data set can be described thus: Western blotting of MDA-MB-468 cells treated with marinopyrrole derivatives (Mcl-1, Bim, caspase 3). In kind it is cell-based. The note with it: 10 μM for 16 h. How it is done: The cells were then processed for western blotting according to a previously described methods (Balasis M E et al. Clin. Cancer Res. 2011, 17, 2852-2862). […] However, none of the cyclic marinopyrroles were active in intact cells.
ELISAs were performed using a modified version of a previously described procedure (Doi K et al. J. Biol. Chem. 2012, 287, 10224-10235). Briefly, 40 nM of biotinylated Bim BH3 peptide (Biomatik) in SuperBlock blocking buffer (Pierce) was incubated in high-binding capacity streptavidin-coated plates (Pierce) for 2 h. Compounds were diluted in 120 μl of PBS containing 10 nM of GST-Mcl-1 or GST-Bcl-xL in 1.5 mL tubes for 15 min. Wells were washed with wash buffer (PBS containing 0.05% Tween-20) and then 100 μL of the compound/GST-protein mixture was transferred to the wells. The plates were incubated for 2 h, and then the wells were washed with wash buffer. HRP-conjugated anti-GST antibody (Bethyl Laboratories) was diluted 1:2000 in SuperBlock and 100 μL was transferred to each well. The plate was incubated for 1 h, and then the wells were washed with wash buffer followed by PBS. 100 μL of SureBlue TMB Microwell Peroxidase Substrate (VWR) was added to each well and plates were developed for 5-10 min. 100 μL of 1 N HCl was added to each well to stop the reaction and absorbance was read at 450 nm using a μQuant plate reader (Bio-Tek).
(In western blotting, separated proteins are transferred to a membrane and probed.)

The subject of data set [4] is MDA-MB-468 cells. The data set can be described thus: Soft agar assay (anchorage-independent growth). Particulars: 21 days, compared with 1. In kind it is cell-based, human.
The test system of data set [5] is MDA-MB-468 cells. The data set can be described thus: MTT assay (anchorage-dependent proliferation). The note with it: 48 hours, compared with 1. The data set is classed as cell-based, human. Background: Formazan colour is commonly taken as a measure of viable cells.
The test system of data set [6] is A-549 human lung cancer cells. The data set can be described thus: Soft agar assay (anchorage-independent growth). The data set is classed as cell-based. Particulars: 21 days, compared with 1.
Data set [7] has as its system Bim/Mcl-1 and Bim/Bcl-xL in MDA-MB-468 cancer cells. The data set can be described thus: Co-immunoprecipitation and densitometry of Bim/Mcl-1 and Bim/Bcl-xL in treated cells. In kind it is cell-based, human. Particulars: compared with 1.
The test system of data set [8] is A-549 human lung cancer cells. The data set can be described thus: MTT assay (anchorage-dependent proliferation). In kind it is cell-based. Particulars: 48 hours, compared with 1.
Data set [9] concerns MDA-MB-468 cells. The data set can be described thus: Western blots of MDA-MB-468 cells treated with 1 and I-2 (Bcl-2 family proteins, Caspase 3 and PARP cleavage). In kind it is cell-based, human.
A further data set relates to A-549 xenografts. The data set can be described thus: A-549 xenografts in nude mice. The data set is classed as in vivo. Particulars: 4 mpk/day for 14 days.
For data set [10], the system named is cultured human cancer cells. The data set can be described thus: Induction of apoptosis in cultured human cancer cells. In kind it is cell-based. Particulars: intact cell studies.
The target of data set [11] is T1, Mcl-1 (Homo sapiens, UniProt Q07820). The data set can be described thus: Fluorescence-quenching (FQ) assay based on intrinsic Trp fluorescence of Mcl-1. In kind it is binding. From the text:
To investigate direct binding of compounds to Mcl-1, a fluorescence-quenching (FQ) assay based on the intrinsic Trp fluorescence of Mcl-1 was established.
Target sequence in this assay (Q07820 whole entry): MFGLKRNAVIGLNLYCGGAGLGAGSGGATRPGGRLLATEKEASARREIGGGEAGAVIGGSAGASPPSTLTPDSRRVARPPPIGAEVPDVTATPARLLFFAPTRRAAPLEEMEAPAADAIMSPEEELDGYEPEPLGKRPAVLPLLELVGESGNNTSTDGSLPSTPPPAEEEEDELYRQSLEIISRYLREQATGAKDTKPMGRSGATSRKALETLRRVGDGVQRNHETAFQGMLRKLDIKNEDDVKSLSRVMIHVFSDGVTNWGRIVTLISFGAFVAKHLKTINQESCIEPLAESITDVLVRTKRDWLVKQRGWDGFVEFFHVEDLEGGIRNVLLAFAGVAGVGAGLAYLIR

Data set [12] deals with T1, Mcl-1. The data set can be described thus: 15N-HSQC NMR chemical shift perturbation with docking. Particulars: HSQC chemical shift changes. On the set-up: MBP (cleaved yes); made in house; host or cells: E. coli BL21(DE3) Codon+. The data set is classed as binding. How it is done:
^15N-HSQC spectra were recorded on ^15N-labelled Mcl-1 at 0.1 mM prepared in 50 mM potassium phosphate solution at pH 6.5, 50 mM NaCl and 1 mM DTT. Titrations up to 100 μM of 1-21 and 1-18 compounds were performed. NMR spectra were acquired at 25° C. on an Inova 600 MHz spectrometer equipped with a cryoprobe and analyzed in CCPNMR (Vranken W F, et al. Proteins. 2005, 59, 687-696).
NMR-guided docking of 1-21 into the X-ray crystal structure of Mcl-1 (PDB ID: 3KJ0) was performed using Glide (Maestro, Schrodinger) (Friesner R A et al. J. Med. Chem. 2004, 47, 1739-1749; Friesner R A, et al. J. Med. Chem. 2006, 49, 6177-6196; Halgren T A, et al. J. Med. Chem. 2004, 47, 1750-1759; Gavathiotis E, et al. Nat. Chem. Biol. 2012, 8, 639-645). The lowest-energy docking pose is consistent with the observed NMR-chemical shift perturbation data. Pymol is used for preparing the highlighted poses.
Structural characterization of I-20 and II-4 was performed using NMR. HSQC spectra were collected at different ratios of compound:Mcl-1. […] The residues that undergo chemical shift changes upon compounds' binding onto the structure of Mcl-1 and the compounds' binding location were mapped (FIG. 6B). An induced fit molecular docking approach guided by the NMR chemical shifts was used to determine the structural models of the compounds bound to Mcl-1 using Glide software (Schrodinger; FIG. 6C). […]
Target sequence in this assay (Q07820 172-327): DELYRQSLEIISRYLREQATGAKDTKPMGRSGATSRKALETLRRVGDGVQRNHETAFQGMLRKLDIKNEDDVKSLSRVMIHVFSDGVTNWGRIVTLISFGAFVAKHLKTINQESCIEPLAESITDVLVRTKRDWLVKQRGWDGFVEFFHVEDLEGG

The mark [13] stands for this setting: Table 2-B, n ≥ 3, read-out: Mcl-1/Bim IC50 (average ± SEM).
Setting [14] is: Table 3-A structure I, Mcl-1 at 10 nM, n ≥ 3, read-out: Mcl-1-Bim IC50 (average ± SEM).
[15] abbreviates: read-out: IC50 to inhibit the binding of Mcl-1 to Bim.
Where [16] appears, read: Table 2-B, n ≥ 3 unless specified, read-out: Bcl-xL/Bim IC50 (average ± SEM).
[17] abbreviates: Table 3-A structure I, Bcl-xL at 10 nM, n ≥ 3, read-out: Bcl-xL-Bim IC50 (average ± SEM).

The text below walks through data of patent US10358454B2, “Marinopyrrole derivatives and methods of making and using same” (H. LEE MOFFITT CANCER CENTER AND RESEARCH INSTITUTE, INC., priority 2014, dated 2019).

“Also recorded” adds a separate entry of the source. Where two headings read alike, the source gives them in different places.

A word on the Kd: it is the concentration at which binding is half-saturated.

Chain of Bcl-xL/Bim (Q07817 whole entry): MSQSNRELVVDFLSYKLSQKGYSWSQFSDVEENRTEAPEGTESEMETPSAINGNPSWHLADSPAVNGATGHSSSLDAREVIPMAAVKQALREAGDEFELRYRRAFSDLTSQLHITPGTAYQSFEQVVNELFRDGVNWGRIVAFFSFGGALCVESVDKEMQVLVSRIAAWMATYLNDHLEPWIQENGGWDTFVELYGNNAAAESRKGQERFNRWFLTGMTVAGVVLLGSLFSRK
Chain of Mcl-1/Bim (Q07820 whole entry): as the sequence (Q07820 whole entry) above

Consider `O=C(c1ccccc1O)c1[nH]c(Cl)c(Cl)c1-n1c(C(=O)c2ccccc2O)cc(Cl)c1Cl` (racemic) [(±)-1, (±)-marinopyrrole A, reference compound], for which, in “Solubility”, the solubility in words result is “poor solubility”. The stability in words entry in data set [1] (1 to 48 hours) is “highly stable”. The remained intact in [1] is given as 76%. For the same compound, the IC50 at Mcl-1/Bim (Table 1, Mcl-1 at 10 nM, n ≥ 3, read-out: Mcl-1-Bim IC50 (average ± SEM)) came out at 8.9 ± 1 µM; at Mcl-1/Bim (Table 2-A, n ≥ 3, read-out: Mcl-1/Bim IC50 (average ± SEM)) it was 8.9 ± 1 µM; at Mcl-1/Bim (setting [13]) it was 8.9 ± 1 µM; on Mcl-1/Bim (setting [14]), 8.9 ± 1 µM; on Mcl-1/Bim (setting [15]) it was 8.9 µM; on Bcl-xL/Bim (Table 1, Bcl-xL at 10 nM, n ≥ 3, read-out: Bcl-xL-Bim IC50 (average ± SEM)), 16.4 ± 3.3 µM. Besides, the IC50 on Bcl-xL/Bim (Table 2-A, n ≥ 3, read-out: Bcl-xL/Bim IC50 (average ± SEM)) was 16.4 ± 3.3 µM; on Bcl-xL/Bim (setting [16]) it was 16.4 ± 3.3 µM; at Bcl-xL/Bim (setting [17]), 16.4 ± 3.3 µM; at Bcl-xL/Bim (read-out: IC50 to inhibit Bcl-xL/Bim binding), 16.4 µM. For the same compound, the “selectivity for Mcl-1 over Bcl-xL (Mcl-1/Bim over Bcl-xL/Bim)” value on Mcl-1/Bim was 1.8 fold; on Mcl-1/Bim (listed as marinopyrrole A), “two fold”. The “pKa values lower than that of phenol” value in data set [2] is on record as 1.6-2.2 log units. The “effect on levels of Mcl-1 and Bim and cleavage of caspase 3” value in data set [3] was “able to decrease Mcl-1 and Bim and to cleave caspas 3”.
For the compound `C#Cc1ccc(C(=O)c2[nH]c(Cl)c(Cl)c2-n2c(C(=O)c3ccc(C#C)cc3O)cc(Cl)c2Cl)c(O)c1` [Compound 1-3, (4,4′,5,5′-Tetrachloro-1′H-1,3′-bipyrrole-2,2′-diyl)bis((4-ethynyl-2-hydroxyphenyl)methanone)], the “inhibiting anchorage-independent proliferation (soft agar)” value (with MDA-MB-468 cells [4]; in data set [6]) was “more potent than 1” each time. Moreover, the “inhibiting anchorage-dependent proliferation (MTT)” value (in the data set on MDA-MB-468 cells [5]; in [8]) was “more potent than 1” throughout. For the same compound, the “inhibition of binding of Mcl-1 and Bcl-xL to Bim in cells” value in [7] is on record as “more potent than 1”. Further, in data set [1], the remained intact came out at 81%. In addition, on Mcl-1/Bim, the “activity against Mcl-1/Bim in words” value is recorded as “more potent than 1”. Also, the IC50 on Mcl-1/Bim (setting [13]) amounted to 3.9 ± 0.2 µM; at Mcl-1/Bim (setting [14]), 3.9 ± 0.2 µM; at Mcl-1/Bim (setting [15]), 3.7 µM; on Bcl-xL/Bim (setting [16]) it was 5.6 ± 0.5 µM; on Bcl-xL/Bim (setting [17]), 5.6 ± 0.5 µM. In addition, the “selectivity profile Mcl-1 vs Bcl-xL in words” value at Mcl-1/Bim (from Mcl-1/Bim and Bcl-xL/Bim ELISA) is “dual Mcl-1 and Bcl-XL antagonists”. Also, at Bcl-xL/Bim, the “activity against Bcl-xL/Bim in words” value is “more potent than 1”. Moreover, the “effect on Bcl-2 and Bax levels” value in the data set with MDA-MB-468 cells [9] was “little effects”. Moreover, the “effect on Bim level” value with MDA-MB-468 cells [9] is “slightly decreased”. The “decreasing levels of Mcl-1 and Bcl-xL and increasing levels of Bak and Bad” value in the data set on MDA-MB-468 cells [9] (compared with 1) was “more potent than 1”. Also, the “inducing apoptosis (Caspase 3 and PARP cleavage)” value with MDA-MB-468 cells [9] (compared with 1) was “more potent than 1”. Also, the “effect on the body weights of the mice” value in the data set with A-549 xenografts was “little effect”. Further, in the data set with A-549 xenografts (vehicle-treated mice 160±10%), the “increase of tumor volumes from day 1 to day 14” value stood at 45±30%. The induction of apoptosis result in data set [10] was “induced apoptosis”.
Consider `O=C(c1ccc(P(=O)(O)O)cc1O)c1[nH]c(Cl)c(Cl)c1-n1c(C(=O)c2ccc(P(=O)(O)O)cc2O)cc(Cl)c1Cl` [Compound I-20, ((4,4′,5,5′-Tetrachloro-1′H-[1,3′-bipyrrole]-2,2′-dicarbonyl)bis(3-hydroxy-4,1-phenylene))diphosphonic acid], for which, in “Solubility”, the solubility in words entry is listed as “improvement in aqueous solubility”. The values for the IC50 at Mcl-1/Bim (setting [14]) and on Bcl-xL/Bim (setting [17]) were 10.9 ± 3.1 µM and 27.3 ± 7.2 µM, respectively. Moreover, on Mcl-1/Bim (listed as 8a), the “activity against Mcl-1/Bim in words” value is given as “slightly less potent than 1; also recorded: less active”. Moreover, the “activity against Bcl-xL/Bim in words” value at Bcl-xL/Bim is on record as “less active”. Also, the “direct binding to Mcl-1 by fluorescence quenching” value on Mcl-1 [11] is “directly bind to Mcl-1”. Also, the Kd at Mcl-1 [11] (binding isotherms, read-out: Kd (binding constant)) was 3.5 µM. Besides, at Mcl-1 [12], the “binding to Mcl-1 by NMR” value is “binding to the BH3 pocket of Mcl-1; also recorded: confirmed binding to Mcl-1”. Besides, the “effect on levels of Mcl-1 and Bim and cleavage of caspase 3” value in data set [3] is “little effect on Mcl-1, Bim or caspase 3”.
